Entries after “also recorded” stand apart in the source; their conditions may differ.
Experiments:
Format in all cases: cell-based
Pseudomonas putida = test: MIC and synergy of MIT and BIT in Müller-Hinton broth, 48 h; settings: for growth of the microorganism: MIT ppm = row head c0; as to growth of the microorganism: key: growth of the microorganism took place (symbol '+'); or not (symbol '−')
Protocol: (§1) The synergy index is calculated according to the method of F. C. Kull et al., Applied Microbiology, Vol. 9 (1961), p. 538. Here the synergy index is calculated using the following formula:
(§2) Synergy index SI=Qa/QA+Qb/QB.
The synergy of the two active substances MIT and BIT against the microorganism Pseudomonas putida is shown as in Example 1.
(§3) The test batches again contained a Müller-Hinton broth as a nutrient medium. The cell density was 10^6 cells/mL. The incubation time was 48 h at 25° C. Each sample was incubated on an incubation shaker at 120 rpm.

Pseudomonas aeruginosa = test: as above; settings: for growth of the microorganism: MIT ppm = row head c0; as to growth of the microorganism: key: growth of the microorganism took place (symbol '+'); or not (symbol '−')
Protocol: as §1, §2
The synergy of the two active substances MIT and BIT against the microorganism Pseudomonas aeruginosa is shown as in Example 1.
as §3

[1] = system: standard bacterial inoculum; test: Preservation of coating composition A, repeated bacterial inoculation, streak evaluation
Text: Biocide compositions according to the invention were incorporated into a coating composition A that is used for coating building facades. This coating composition is a plaster based on an aqueous polymer dispersion commercially available under the designation “Granol KR 3.0” (company Steinwerke Kupferdreh GmbH). The addition of the biocide composition of the invention served to preserve the coating composition before its use, i.e., while it was stored in its packing drums.
The biocides shown in Table XI below were added respectively to 50 g of coating composition A. The stated amounts of biocide refer to the amount of coating composition A. In the MIT/BIT mixtures, the two biocides were present in a weight ratio of 1:1.
Apart from a blank test without addition of biocide, 1 mL of a standard bacterial inoculum that contained the following bacterial strains was added to each sample of coating composition A:
The cell density of the inoculum was 10^10 to 3·10^10 cells/mL, and the cell density of the samples was 2·10^8 to 6·10^8 cells/g. The samples were held at 30° C. for 7 days. Then a streak of each sample was produced on a nutrient agar plate, held at 30° C. for 48 h, and then evaluated for bacterial growth. The following evaluation scale was used:
When the bacterial growth was evaluated as below 6, a second bacterial inoculum of the above-mentioned type was added to the corresponding original 50 g sample and it was again held at 30° C. for 7 days. Then a streak was again produced on a nutrient agar plate, which was again evaluated for its bacterial growth after a holding time of 48 h at 30° C.
When the bacterial growth of the streak was evaluated as 6 for a sample, the testing of this sample was terminated. As long as a sample had not reached this number, a bacterial inoculum was again added in the above-mentioned manner and the sample was held and tested by means of a streak. This procedure was repeated as necessary, with a maximum of 4 bacterial inocula being added per sample.

Penicillium funiculosum = test: MIC and synergy of MIT and BIT in Sabouraud maltose broth, 96 h; settings: for growth of the microorganism: MIT ppm = row head c0; as to growth of the microorganism: key: growth of the microorganism took place (symbol '+'); or not (symbol '−')
Protocol: as §1, §2
The synergy of the two active substances MIT and BIT against the microorganism Penicillium funiculosum is shown as in Example 1.
The test batches contained a Sabouraud maltose broth as a nutrient medium. The spore concentration was 10^6 per mL. The incubation time was 96 h at 25° C. Each sample was incubated on an incubation shaker at 120 rpm.

[2] = BIT share of the BIT/MIT mixture at MIC, 48 h

O=c1[nH]sc2ccccc12 [BIT, 1,2-benzisothiazolin-3-one]
MIC at Total concentration BIT + MIT Qa + Qb (Pseudomonas putida; 48 h): 60 ppm
Qa/QA (Pseudomonas putida; 48 h): 1.00
Synergy index Qa/QA + Qb/QB (Pseudomonas putida; 48 h): 1.00
growth of the microorganism (Pseudomonas putida; BIT 0.5 ppm, 48 h): +
growth of the microorganism (Pseudomonas putida; BIT 1 ppm, 48 h): +
growth of the microorganism (Pseudomonas putida; BIT 2.5 ppm, 48 h): +
growth of the microorganism (Pseudomonas putida; BIT 5 ppm, 48 h): +
growth of the microorganism (Pseudomonas putida; BIT 7.5 ppm, 48 h): +
growth of the microorganism (Pseudomonas putida; BIT 10 ppm, 48 h): +
growth of the microorganism (Pseudomonas putida; BIT 15 ppm, 48 h): +
growth of the microorganism (Pseudomonas putida; BIT 20 ppm, 48 h): +
growth of the microorganism (Pseudomonas putida; BIT 25 ppm, 48 h): +
growth of the microorganism (Pseudomonas putida; BIT 30 ppm, 48 h): +
growth of the microorganism (Pseudomonas putida; BIT 40 ppm, 48 h): +
growth of the microorganism (Pseudomonas putida; BIT 50 ppm, 48 h): +
growth of the microorganism (Pseudomonas putida; BIT 60 ppm, 48 h): −
growth of the microorganism (Pseudomonas putida; BIT 70 ppm, 48 h): −
growth of the microorganism (Pseudomonas putida; BIT 80 ppm, 48 h): −
MIC at BIT concentration Qa (Pseudomonas putida; [2]): 60 ppm
MIC value (Pseudomonas putida; used alone, 48 h at 25° C.): 60 ppm
MIC at Total concentration BIT + MIT Qa + Qb (Pseudomonas aeruginosa; 48 h): 150 ppm
Qa/QA (Pseudomonas aeruginosa; 48 h): 1.00
Synergy index Qa/QA + Qb/QB (Pseudomonas aeruginosa; 48 h): 1.00
growth of the microorganism (Pseudomonas aeruginosa; BIT 5 ppm, 48 h): +
growth of the microorganism (Pseudomonas aeruginosa; BIT 10 ppm, 48 h): +
growth of the microorganism (Pseudomonas aeruginosa; BIT 25 ppm, 48 h): +
growth of the microorganism (Pseudomonas aeruginosa; BIT 50 ppm, 48 h): +
growth of the microorganism (Pseudomonas aeruginosa; BIT 75 ppm, 48 h): +
growth of the microorganism (Pseudomonas aeruginosa; BIT 100 ppm, 48 h): +
growth of the microorganism (Pseudomonas aeruginosa; BIT 125 ppm, 48 h): +
growth of the microorganism (Pseudomonas aeruginosa; BIT 150 ppm, 48 h): −
growth of the microorganism (Pseudomonas aeruginosa; BIT 175 ppm, 48 h): −
growth of the microorganism (Pseudomonas aeruginosa; BIT 200 ppm, 48 h): −
MIC at BIT concentration Qa (Pseudomonas aeruginosa; [2]): 150 ppm
MIC value (Pseudomonas aeruginosa; used alone, 48 h at 25° C.): 150 ppm
Bacterial growth (7 days + 48 h after 4th inoculation) ([1]; biocide 0.005% by wt): full bacterial growth was reached already after the first inoculation; also recorded: (Growth already after 1st inoculation)
Bacterial growth (7 days + 48 h after 4th inoculation) ([1]; biocide 0.01% by wt): (Growth already after 1st inoculation)
Bacterial growth (7 days + 48 h after 4th inoculation) ([1]; biocide 0.015% by wt): after the second inoculation; also recorded: (Growth already after 2nd inoculation)
Bacterial growth (7 days + 48 h after 4th inoculation) ([1]; biocide 0.02% by wt): (Growth already after 2nd inoculation)
Bacterial growth (7 days + 48 h after 4th inoculation) ([1]; biocide 0.03% by wt): after the third inoculation; also recorded: (Growth already after 3rd inoculation)
MIC at Total concentration BIT + MIT Qa + Qb (Penicillium funiculosum; 96 h): 200 ppm
Qa/QA (Penicillium funiculosum; 96 h): 1.00
Synergy index Qa/QA + Qb/QB (Penicillium funiculosum; 96 h): 1.00
growth of the microorganism (Penicillium funiculosum; BIT 10 ppm, 96 h): +
growth of the microorganism (Penicillium funiculosum; BIT 15 ppm, 96 h): +
growth of the microorganism (Penicillium funiculosum; BIT 20 ppm, 96 h): +
growth of the microorganism (Penicillium funiculosum; BIT 30 ppm, 96 h): +
growth of the microorganism (Penicillium funiculosum; BIT 40 ppm, 96 h): −
growth of the microorganism (Penicillium funiculosum; BIT 50 ppm, 96 h): −
growth of the microorganism (Penicillium funiculosum; BIT 75 ppm, 96 h): −
MIC at BIT concentration Qa (Penicillium funiculosum; share of the BIT/MIT mixture at MIC, 96 h): 200 ppm
MIC value (Penicillium funiculosum; used alone, 96 h at 25° C.): 40 ppm
